# Results reported in ChEMBL document CHEMBL1201862, “PubChem BioAssay data set” (2004).
# The source made the active and inactive calls.
# Assays:
# HEK293 = experiment: cells; assay type: functional, cell-based; details: Homo sapiens
# [1] = biological target: Nuclear receptor subfamily 0 group B member 1 (Homo sapiens, UniProt P51843); experiment: Luminescence-based cell-based high throughput dose response assay for inhibitors of the orphan nuclear receptor subfamily 0, group B, member 1 (DAX1; NR0B1). [Related pubchem assays (depositor defined):AID504766, AID504790]; assay type: functional
# Nuclear receptor subfamily 0 group B member 1, sequence (P51843 whole entry): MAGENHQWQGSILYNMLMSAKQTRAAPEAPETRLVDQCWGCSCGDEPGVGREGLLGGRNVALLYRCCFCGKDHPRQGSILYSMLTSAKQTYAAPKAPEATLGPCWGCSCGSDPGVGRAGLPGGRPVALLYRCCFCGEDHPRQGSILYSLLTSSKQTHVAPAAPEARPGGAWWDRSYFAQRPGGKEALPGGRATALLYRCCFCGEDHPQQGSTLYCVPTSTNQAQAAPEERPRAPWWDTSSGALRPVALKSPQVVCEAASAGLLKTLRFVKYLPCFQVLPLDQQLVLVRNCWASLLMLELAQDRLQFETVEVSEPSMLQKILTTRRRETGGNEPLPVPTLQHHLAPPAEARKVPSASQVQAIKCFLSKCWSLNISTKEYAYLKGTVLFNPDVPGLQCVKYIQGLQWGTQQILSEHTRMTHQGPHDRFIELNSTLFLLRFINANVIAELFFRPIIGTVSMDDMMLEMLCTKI
# [2] = biological target: Serine/threonine-protein phosphatase (Candida dubliniensis (strain CD36 / CBS 7987 / NCPF 3949 / NRRLY-17841) (Yeast), UniProt B9W6M3); experiment: blockers of CaCl2-induced CDRE-lacZ signaling – S. cerevisiae, luminescence, secondary, dose response (AID 2388); assay type: functional, cell-based;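 note: yeast reporter cells carrying a calcineurin-responsive lacZ construct stimulated with calcium chloride; luminescent beta-galactosidase reporter signal in whole cells rather than isolated phosphatase activity; potency for inhibition where a drop in reporter signal means calcineurin blockade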
# Serine/threonine-protein phosphatase, sequence (B9W6M3 whole entry): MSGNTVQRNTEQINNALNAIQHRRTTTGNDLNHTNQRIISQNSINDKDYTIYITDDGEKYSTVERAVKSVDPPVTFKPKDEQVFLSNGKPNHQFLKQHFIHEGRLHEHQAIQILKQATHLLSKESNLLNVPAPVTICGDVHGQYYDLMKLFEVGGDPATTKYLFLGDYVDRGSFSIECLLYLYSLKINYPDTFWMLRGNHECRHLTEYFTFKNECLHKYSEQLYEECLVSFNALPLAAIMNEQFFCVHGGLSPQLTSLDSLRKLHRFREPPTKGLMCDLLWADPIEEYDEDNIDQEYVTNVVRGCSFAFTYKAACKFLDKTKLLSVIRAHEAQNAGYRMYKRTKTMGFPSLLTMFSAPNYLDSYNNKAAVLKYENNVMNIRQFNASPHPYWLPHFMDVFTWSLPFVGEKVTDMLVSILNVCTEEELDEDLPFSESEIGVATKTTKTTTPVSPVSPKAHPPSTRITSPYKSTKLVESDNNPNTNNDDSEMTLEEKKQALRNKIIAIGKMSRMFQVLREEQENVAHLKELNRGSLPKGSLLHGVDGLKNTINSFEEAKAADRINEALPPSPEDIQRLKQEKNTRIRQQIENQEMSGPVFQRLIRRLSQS
# [3] = biological target: ATP-dependent molecular chaperone HSP82 (Candida albicans (strain WO-1) (Yeast), UniProt C4YTQ8); experiment: steroid-induced GRE reporter decrease in yeast – S. cerevisiae, luminescence, Hsp90 inhibitor project, dose response (AID 2400); assay type: functional, cell-based;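 note: beta-galactosidase luminescence from glucocorticoid response element reporter as proxy for Hsp90 function; inhibitor potency where signal loss means Hsp90 inhibition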
# ATP-dependent molecular chaperone HSP82, sequence (C4YTQ8 whole entry): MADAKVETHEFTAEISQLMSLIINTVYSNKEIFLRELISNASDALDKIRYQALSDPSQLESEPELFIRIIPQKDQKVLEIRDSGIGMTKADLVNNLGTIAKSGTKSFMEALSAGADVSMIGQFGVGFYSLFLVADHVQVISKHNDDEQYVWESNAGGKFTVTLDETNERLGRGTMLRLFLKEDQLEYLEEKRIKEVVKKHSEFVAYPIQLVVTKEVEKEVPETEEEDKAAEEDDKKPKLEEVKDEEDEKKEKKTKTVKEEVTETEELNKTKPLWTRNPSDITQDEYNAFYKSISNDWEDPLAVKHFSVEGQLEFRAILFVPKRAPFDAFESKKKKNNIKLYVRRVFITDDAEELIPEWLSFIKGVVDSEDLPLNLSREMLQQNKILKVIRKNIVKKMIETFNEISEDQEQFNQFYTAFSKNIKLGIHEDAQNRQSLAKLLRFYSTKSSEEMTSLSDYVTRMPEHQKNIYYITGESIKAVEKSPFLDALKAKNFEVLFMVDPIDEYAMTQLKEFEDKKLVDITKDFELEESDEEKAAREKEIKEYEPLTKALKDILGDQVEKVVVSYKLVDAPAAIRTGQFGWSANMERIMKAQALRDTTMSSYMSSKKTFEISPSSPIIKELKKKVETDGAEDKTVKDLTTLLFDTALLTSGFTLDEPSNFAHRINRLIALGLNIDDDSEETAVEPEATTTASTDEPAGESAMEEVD
# [4] = fluconazole-exposed Candida albicans growth modulators – fluorescence, retest, confirmation (AID 2467); assay type: functional, cell-based
# [5] = Luminescence Cell-Based Dose Retest to Confirm Inhibitors of Cancer Stem Cells. [Related pubchem assays (depositor defined):AID2717, AID2721]; assay type: functional; details: Homo sapiens
# [6] = NIH-3T3 fibroblast cytotoxicity, dose response, cytotoxicity control, cell-based, fluorescence, Alamar Blue, secondary assay (AID 2327); assay type: functional;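 note: NIH-3T3 mouse fibroblasts cultured with fluconazole at 8 µg/mL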
# [7] = biological target: T1, Apoptotic protease-activating factor 1 (Homo sapiens, UniProt O14727); experiment: SAR analysis of small molecule inhibitors of Apaf-1 in a Fluorescent assay.; assay type: functional; details: read-out: IC50_Mean
# T1 sequence (O14727 whole entry): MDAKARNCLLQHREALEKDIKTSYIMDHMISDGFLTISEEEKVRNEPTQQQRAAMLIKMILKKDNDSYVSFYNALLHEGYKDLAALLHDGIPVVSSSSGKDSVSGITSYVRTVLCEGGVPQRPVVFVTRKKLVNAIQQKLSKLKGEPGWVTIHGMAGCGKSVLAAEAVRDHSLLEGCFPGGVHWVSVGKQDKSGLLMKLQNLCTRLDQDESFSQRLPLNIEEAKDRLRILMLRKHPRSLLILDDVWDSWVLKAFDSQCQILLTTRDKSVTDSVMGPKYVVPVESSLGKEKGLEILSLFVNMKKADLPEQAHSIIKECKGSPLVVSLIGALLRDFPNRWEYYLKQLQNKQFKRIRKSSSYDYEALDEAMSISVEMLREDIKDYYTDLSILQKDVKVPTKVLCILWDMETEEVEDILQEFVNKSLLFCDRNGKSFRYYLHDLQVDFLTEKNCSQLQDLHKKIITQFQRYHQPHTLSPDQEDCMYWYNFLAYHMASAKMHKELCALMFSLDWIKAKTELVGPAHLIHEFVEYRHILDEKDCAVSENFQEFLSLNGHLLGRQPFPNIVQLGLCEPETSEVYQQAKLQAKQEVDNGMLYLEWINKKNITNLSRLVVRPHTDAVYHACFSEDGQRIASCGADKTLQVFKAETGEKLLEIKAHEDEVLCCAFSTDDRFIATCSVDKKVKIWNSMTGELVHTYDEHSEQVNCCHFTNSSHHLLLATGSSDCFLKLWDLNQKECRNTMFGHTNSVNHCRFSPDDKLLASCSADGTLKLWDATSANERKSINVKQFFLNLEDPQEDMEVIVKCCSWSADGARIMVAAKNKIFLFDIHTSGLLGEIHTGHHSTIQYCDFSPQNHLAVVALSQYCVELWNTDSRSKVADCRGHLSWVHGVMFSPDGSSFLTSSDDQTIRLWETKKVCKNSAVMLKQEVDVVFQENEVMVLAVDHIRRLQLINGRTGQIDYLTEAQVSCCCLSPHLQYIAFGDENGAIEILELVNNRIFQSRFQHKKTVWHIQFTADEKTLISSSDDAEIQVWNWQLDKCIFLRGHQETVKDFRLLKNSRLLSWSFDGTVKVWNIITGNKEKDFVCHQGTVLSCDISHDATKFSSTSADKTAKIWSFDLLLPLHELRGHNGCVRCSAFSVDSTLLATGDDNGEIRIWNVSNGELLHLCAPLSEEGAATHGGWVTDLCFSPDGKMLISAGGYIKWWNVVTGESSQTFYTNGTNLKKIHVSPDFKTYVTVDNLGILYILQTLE
# Escherichia coli [8] = experiment: microbe, parasite or virus in culture
# Streptococcus = experiment: GAS UMAA2166 growth inhibition – luminescence, BacTiterGlo, counter-screen for streptokinase expression inhibitor project, dose response (AID 1915); assay type: functional, organism-based;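 note: potency for reduction of bacterial viability or growth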
# Escherichia coli [9] = experiment: microbe, parasite or virus in culture; remark: listed apart in the source
# [10] = tested on: Streptococcus sp. 'group A'; experiment: Streptococcus pyogenes SK(-)GAS viability under kanamycin – luminescence, BacTiterGlo, confirmation, counter-screen for streptokinase expression inhibitor project, dose response (AID 1900); assay type: functional, organism-based
# [11] = biological target: T2, Zinc finger protein mex-5 (Caenorhabditis elegans, UniProt Q9XUB2); experiment: potency of MEX-5 RNA-binding blockers – biochemical, C. elegans, fluorescence polarization, dose response (AID 1960)
# T2 sequence (Q9XUB2 whole entry): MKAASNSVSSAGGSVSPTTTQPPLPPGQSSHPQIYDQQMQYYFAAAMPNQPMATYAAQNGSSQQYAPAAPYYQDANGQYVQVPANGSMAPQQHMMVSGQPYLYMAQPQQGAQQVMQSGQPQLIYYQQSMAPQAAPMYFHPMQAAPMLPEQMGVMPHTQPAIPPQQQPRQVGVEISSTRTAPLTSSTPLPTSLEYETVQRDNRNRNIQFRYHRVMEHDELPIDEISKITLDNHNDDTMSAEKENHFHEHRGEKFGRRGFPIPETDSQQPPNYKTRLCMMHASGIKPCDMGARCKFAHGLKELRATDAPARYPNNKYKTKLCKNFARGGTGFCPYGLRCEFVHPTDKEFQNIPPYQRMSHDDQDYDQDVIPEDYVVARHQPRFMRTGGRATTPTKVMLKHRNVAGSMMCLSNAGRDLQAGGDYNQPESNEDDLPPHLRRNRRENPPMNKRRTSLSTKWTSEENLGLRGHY
# [12] = Luminescence Cell-Based Dose Response to Identify Activators of 5'UTR Stem-Loop Driven Prion Protein mRNA Translation in H4-C Neuroglioblastoma Cells. [Related pubchem assays: 1829 (Project Summary), 1814 (Primary HTS)]; assay type: functional
# H4 = experiment: Luminescence Cell-Based Dose Response HTS to Identify Activators of 5'UTR Stem-Loop Driven Prion Protein mRNA Translation in H4 Neuroglioblastoma Cells. [Related pubchem assays: 1829 (Project Summary), 1814 (Primary HTS)]; assay type: functional; details: Homo sapiens
# [13] = Luminescence Cell-Based Dose Response to Identify Activators of Luciferase Translation or Activity in H4-C Neuroglioblastoma Cells. [Related pubchem assays: 1829 (Project Summary), 1814 (Primary HTS)]; assay type: functional
# [14] = Luminescence Cell-Based Dose Confirmation to Identify Activators of 5'UTR Stem-Loop Driven Alpha-Synuclein mRNA Translation in H4 Neuroglioblastoma Cells. [Related pubchem assays: 1829 (Project Summary), 1814 (Primary HTS)]; assay type: functional
# Large T antigen = Large T antigen (Simian virus 40, UniProt P03070); assay type: functional, Betapolyomavirus macacae;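 note: Confirmatory-stage PubChem screen for compounds that inhibit SV40 T antigen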
# Large T antigen, sequence (P03070 whole entry): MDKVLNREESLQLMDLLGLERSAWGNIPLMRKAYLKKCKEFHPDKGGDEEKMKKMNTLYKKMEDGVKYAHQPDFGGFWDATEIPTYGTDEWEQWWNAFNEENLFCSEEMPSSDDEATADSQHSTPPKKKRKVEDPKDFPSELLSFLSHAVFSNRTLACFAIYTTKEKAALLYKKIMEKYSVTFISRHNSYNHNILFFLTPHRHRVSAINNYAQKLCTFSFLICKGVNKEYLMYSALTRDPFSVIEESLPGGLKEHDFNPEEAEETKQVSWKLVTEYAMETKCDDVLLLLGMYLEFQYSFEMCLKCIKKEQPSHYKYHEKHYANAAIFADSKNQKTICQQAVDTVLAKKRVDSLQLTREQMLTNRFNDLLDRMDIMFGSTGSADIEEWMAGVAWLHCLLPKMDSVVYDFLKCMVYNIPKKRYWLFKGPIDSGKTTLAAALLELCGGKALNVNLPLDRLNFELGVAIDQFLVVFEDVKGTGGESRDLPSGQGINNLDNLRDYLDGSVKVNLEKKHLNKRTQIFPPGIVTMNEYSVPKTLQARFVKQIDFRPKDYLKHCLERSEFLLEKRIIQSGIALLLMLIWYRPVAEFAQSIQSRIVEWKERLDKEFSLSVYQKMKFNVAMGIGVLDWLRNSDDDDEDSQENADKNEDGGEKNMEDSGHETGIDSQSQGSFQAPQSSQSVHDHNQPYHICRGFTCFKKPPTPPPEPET
# [15] = biological target: 72 kDa type IV collagenase (Homo sapiens, UniProt P08253); experiment: Dose Response validation of uHTS RPN11 inhibitor hits using a MMP-2 Fluorescence assay.; assay type: functional
# 72 kDa type IV collagenase, sequence (P08253 whole entry): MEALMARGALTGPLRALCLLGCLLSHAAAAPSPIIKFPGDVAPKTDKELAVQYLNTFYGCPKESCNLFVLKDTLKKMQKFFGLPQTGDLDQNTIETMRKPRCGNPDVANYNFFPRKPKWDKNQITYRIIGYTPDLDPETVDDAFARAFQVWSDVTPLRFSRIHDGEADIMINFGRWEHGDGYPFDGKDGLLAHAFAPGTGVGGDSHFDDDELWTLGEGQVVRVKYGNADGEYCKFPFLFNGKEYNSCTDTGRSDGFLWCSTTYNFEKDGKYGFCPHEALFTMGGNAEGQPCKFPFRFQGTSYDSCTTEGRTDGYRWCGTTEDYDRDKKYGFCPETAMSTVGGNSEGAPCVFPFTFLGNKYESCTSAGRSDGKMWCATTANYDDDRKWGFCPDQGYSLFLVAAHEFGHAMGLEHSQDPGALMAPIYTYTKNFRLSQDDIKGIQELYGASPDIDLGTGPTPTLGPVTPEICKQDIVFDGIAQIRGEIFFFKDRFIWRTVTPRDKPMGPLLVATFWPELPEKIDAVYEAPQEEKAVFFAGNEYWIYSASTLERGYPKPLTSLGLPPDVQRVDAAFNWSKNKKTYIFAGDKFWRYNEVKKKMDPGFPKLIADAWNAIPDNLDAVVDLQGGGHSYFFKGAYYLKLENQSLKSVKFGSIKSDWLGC
# Prothrombin = Prothrombin (Bos taurus, UniProt P00735); experiment: thrombin protease inhibitors – biochemical, fluorescence polarization, uHTS hits, dose response (AID 602369); assay type: functional
# [16] = biological target: 26S proteasome non-ATPase regulatory subunit 14 (Homo sapiens, UniProt O00487); experiment: inhibition of proteasome subunit RPN11 – biochemical, fluorescence polarization, uHTS hits, confirmation (AID 602368); assay type: functional
# 26S proteasome non-ATPase regulatory subunit 14, sequence (O00487 whole entry): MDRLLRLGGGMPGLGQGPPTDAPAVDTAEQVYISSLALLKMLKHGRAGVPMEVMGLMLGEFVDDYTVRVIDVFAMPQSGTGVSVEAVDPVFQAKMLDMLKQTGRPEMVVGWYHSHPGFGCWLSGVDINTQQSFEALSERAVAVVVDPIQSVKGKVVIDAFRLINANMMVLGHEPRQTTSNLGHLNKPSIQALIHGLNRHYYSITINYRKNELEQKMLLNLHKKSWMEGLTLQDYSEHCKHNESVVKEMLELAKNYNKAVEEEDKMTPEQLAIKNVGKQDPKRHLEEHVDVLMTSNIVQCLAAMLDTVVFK
smiles,measurement,setting,value
CC(=O)Nc1ccc(S(=O)(=O)N[C@@H](C)C(=O)OCC(=O)c2ccc(Br)s2)cc1,IC50,HEK293,> 67.5 µM (inactive)
same,IC50,[1],> 67.5 µM (inactive)
CC/C(=N/NC(=O)c1ccccc1O)c1c(C)nn(-c2ccccc2)c1O,EC50,[2],> 180 µM (inactive)
same,EC50,[3],> 150 µM (inactive)
same,EC50,[4],0.114 µM (active)
same,AC50,[5],3.29 µM (active)
same,EC50,[6],39 µM (active)
COc1ccc(N2C(=O)CC3(CC(c4ccc(F)cc4)=NO3)C2=O)cc1 (stereo not drawn),IC50,[7],58.3 µM (active)
C[C@H]1c2cccc(O)c2C(=O)C2=C(O)[C@]3(O)C(O)=C(C(N)=O)C(=O)[C@@H](N(C)C)C3[C@@H](O)C21 (stereo partly drawn),AC50,Escherichia coli [8],2.34 µM (active)
same,EC50,Streptococcus,0.109 µM (active)
same,AC50,Escherichia coli [9],39.8 µM (active)
same,EC50,[10],< 0.06 µM (active)
same,EC50,[11],45.3 µM (active)
Cc1ccccc1Nc1nc(N)nc(CSc2ccc(F)cc2)n1,EC50,[12],0.343 µM (active)
same,IC50,HEK293,> 67.5 µM (inactive)
same,IC50,[1],> 67.5 µM (inactive)
same,EC50,H4,< 0.1 µM (active)
same,EC50,[13],0.351 µM (active)
same,EC50,[14],0.229 µM (active)
Cc1cc(C(=O)c2cccs2)c(N)s1,IC50,Large T antigen,51.8 µM (active)
same,IC50,[15],32.7 µM (active)
same,IC50,Prothrombin,28.2 µM (active)
same,IC50,[16],20.5 µM (active)
